Results reported in article PMC6403271, “Characterization, mechanism of action and optimization of activity of a novel peptide-peptoid hybrid against bacterial pathogens involved in canine skin infections” (Scientific Reports, 2019).
“Also recorded” adds a separate entry of the source. Square brackets hold non-standard residues; d marks the D form. Peptide text beside a SMILES is read from it. N(1-naphthylmethyl)Gly = O=C(O)CNCc1cccc2ccccc12; d1Nal = N[C@H](Cc1cccc2ccccc12)C(=O)O; N(4-MeBn)Gly = Cc1ccc(CNCC(=O)O)cc1; dNle = CCCC[C@@H](N)C(=O)O; NBuGly = CCCCNCC(=O)O

What was measured:
MRSP E104 [1] = assay: High-throughput growth curves (BioScreen); assay type: cell-based, Staphylococcus pseudintermedius; conditions: 3 µg/ml; decrease of OD over time
Description: The effects of B1 on the growth of a reference MRSP strain (ST71, E104) were evaluated using BioScreen (Oy Growth Curves Ab LTd, Finland). A well characterized antimicrobial peptide, Nisin, was used as a positive control. […] The OD600 of each micro-culture was measured and recorded every 15 min after a 5 second pause of shaking in automatic mode. The recorded ODs were plotted against time to prepare the growth curves. The assay was performed with technical and biological replicates, and one representative result was presented.

[2] = test system: membrane potential of MRSP E104; assay: DiSC3(5) fluorescence-based membrane potential study; assay type: cell-based, Staphylococcus pseudintermedius; conditions: MRSP E104, sub-inhibitory concentration 1.5 µg/mL
Description: Freshly sub-cultured E104 cells were labelled with 1 µM 3,3-Dipropylthiadicarbocyanine iodide [DiSC3(5)] (Sigma) in MHB II. The fluorescence spectra of labelled cells were plotted in the LS50B luminescence spectrometer (PerkinElmer) at excitation/emission wavelengths 546 nm/573 nm using time drive application of FLWINLAB software. After reading an initial stable emission spectra of DiSC3(5), labelled cells were treated with B1 or nisin or protonophore CCCP at 1, 1.5 and 1.25 µg/ml, respectively and the change of fluorescence over time was recorded. The increment of DiSC3(5) fluorescence upon addition of antimicrobials or CCCP (FUafter-treatment – FUbefore-treatment) was plotted. This experiment was performed twice and each time with two technical replicates.

[3] = topical delivery from cream formulation; cited from earlier work
MRSP E104 [4] = assay: Flow cytometry (TO/PI) of antimicrobial-exposed cells; assay type: cell-based, Staphylococcus pseudintermedius; conditions: MRSP E104, lysis concentration (1x MIC), 3 µg/ml, 1 h
Description: Freshly grown cultures (OD 0.2 at 600 nm) of MRSP E104 were exposed to 3 µg/ml of B1 or 2.5 µg/ml of nisin for 1 h and diluted 1:10 in flow cytometry analysis buffer (PBS supplemented with 1 mM EDTA, 0.01% Tween 20 and filtered by 0.22 µm membrane). Diluted cells were stained with 420 nM thiazole orange (TO, Sigma) and 48 µM propidium iodide (PI, Sigma) and analysed using BD ACCURI C6 flow cytometer (BD Biosciences). Unstained cells were used as negative control. Finally, the differentially labelled bacterial populations in antimicrobial-exposed cultures were plotted under FL3(red)/FL1(green) axis using the instrument’s software and categorised into four different conditions: P1 (unstained), P2 (dead cells), P3 (injured cells) and P4 (live cells).

Pronase = conditions: cited from earlier work
human red blood cells = test system: human red blood cells; set-up: method as in PMID 29534469; conditions: at 150 µM; cited from earlier work
P. aeruginosa isolates = assay: MIC, panel of 50 canine P. aeruginosa isolates; assay type: cell-based, Pseudomonas aeruginosa
Description: Activity of B1 was tested on 50P. aeruginosa isolates and 57S. pseudintermedius isolates (including 7 MRSP) that had been isolated in the diagnostic laboratory Sund Vet Diagnostik (University of Copenhagen) from various infections in dogs between 2009 and 2011. Representative MRSP (C22963), MSSA, and P. aeruginosa (26314) were used for testing the first set of B1 analogues.
MIC determination was performed by broth microdilution according to the Clinical and Laboratory Standard Institute (CLSI, M31-A3, 2008)[62]. In brief, each bacterial strain was diluted to concentration of 5 × 10^5 CFU/mL in Mueller Hinton broth II (MHB II) media (Oxoid) and added to a two-fold serial dilution of peptides and peptide-peptoid hybrids concentrations ranging from 1 to 64 µg/ml in 96-well plates (Nunc Internationals, Rochester, NY). The MICs were determined as a lowest concentration showing no visible growth after incubation for 18 hours at 37 °C. Experiments were performed in triplicates on two different days.

[5] = test system: DNA synthesis in MRSP E104; assay: Macromolecule biosynthesis rate, DNA (3H-Thymidine); assay type: cell-based, Staphylococcus pseudintermedius; conditions: MRSP E104, 1.5 µg/mL, 20 min
Description: (§1) Macromolecule biosynthesis rate was measured in MRSP E104 following a protocol adapted from Ling et al.[65]. Briefly, E104 overnight culture was sub-cultured 1:100 in MHB II and grown up to OD 0.2 at 600 nm. Cells were pelleted down by centrifugation and resuspended in fresh medium followed by incubation for 20 min with B1 or nisin at 1.5 µg/ml and 1.25 µg/ml, respectively, and radiolabeled precursor: (50µCi) 3H-Thymidine (PerkinElmer) and (5µCi) 3H-glucosamine hydrochloride per ml for DNA and cell wall, respectively. A positive control without antimicrobial was maintained. After incubation, samples were precipitated with equal volume of cold 30% TCA (Sigma) on ice. Precipitates were filtered on a membrane filter and subsequently subjected to two washes of cold 15% TCA and two washes of cold water using vacuum manifold. Subsequently, filters were air dried overnight and then transferred to 10 ml scintillation vials. Finally, scintillation fluid (3 ml) was added to each vial and ^3H count was taken in Beckman Coulter LS6500 liquid scintillation counter for one minute. The radioactive counts of the control samples were considered to have 100% precursor incorporation and macromolecule synthesis. The percentage rates of the antimicrobial-exposed samples were calculated accordingly. Each experiment was performed with replicates and the average rates of incorporation were plotted.

[6] = test system: cell wall synthesis in MRSP E104; assay: Macromolecule biosynthesis rate, cell wall (3H-glucosamine); assay type: cell-based, Staphylococcus pseudintermedius; conditions: MRSP E104, 1.5 µg/mL, 20 min
Description: as §1

MSSA (ATCC 29213) = assay type: cell-based, Staphylococcus aureus; conditions: ATCC 29213, 18 h
Summary of the method: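 Broth microdilution per CLSI M31-A3 on canine clinical isolates plus reference MRSP C22963, MSSA and P. aeruginosa 26314; 5 × 10^5 CFU/mL in MHB II with two-fold dilutions from 1 to 64 µg/ml. MIC = lowest concentration without visible growth after 18 hours at 37 °C; triplicates on two days.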

[7] = Precipitation in time-kill media; assay type: physicochemical; conditions: time-kill experiment against P. aeruginosa, MHB II
Description: Time kill assays were performed in triplicate, meaning that every value is the average of three different samplings. Time–kill kinetic assays were performed using P. aeruginosa (26314), MRSP E104 and/or MRSP C22963 to determine the cell killing activity of B1 and two of its most promising analogues (compounds 23 and 26) based on prior antimicrobial susceptibility testing. The method reported by Blondeau et al.[63] was followed with minor modifications. Briefly, the assay was performed in MHB II with concentrations corresponding to 0.5, 1, 2 and 4 times the MIC of the strain. After 0, 15, 30, 60, 120, 180 and 300 min of growth, 100 μL aliquots were collected and 10-fold serially diluted. Twenty μL of cell suspension from each dilution were spotted in triplicate on blood agar plates followed by 16–18 h incubation at 37 °C and determination of colony forming units (CFU).

SMILES	growth curve effect on MRSP E104 (MRSP E104 [1])	membrane potential, DiSC3(5) fluorescence emission [2]	skin penetration after administration [3]	flow cytometry PI/TO staining (MRSP E104 [4])	degradation by protease mix Pronase (Pronase)	hemolytic activity (human red blood cells)	MICs against a panel of 50 P. aeruginosa isolates (P. aeruginosa isolates)	effect on DNA replication [5]	reduction in cell wall synthesis [6]	Minimum Inhibitory Concentration MSSA (ATCC 29213) (MSSA (ATCC 29213))	precipitation in the media [7]
CCCCN(CC(=O)N[C@@H](CCCCN)C(=O)N(CC(=O)N(CC(=O)N(CC(N)=O)Cc1cccc2ccccc12)Cc1ccc(C)cc1)Cc1cccc2ccccc12)C(=O)[C@H](CCCCN)NC(=O)[C@@H](N)CCCCN [B1, Lys-Lys-(NBu)Gly-Lys-(N1-Nal)Gly-(N4-MeBn)Gly-(N1-Nal)Gly] (H-KK[NBuGly]K[N(1-naphthylmethyl)Gly][N(4-MeBn)Gly][N(1-naphthylmethyl)Gly]-NH2)	cell lysis	significant membrane depolarization	no skin penetration	Cell death	38%	32%	8 to 16 µg/mL	without affecting DNA replication; also recorded: no effect on DNA replication	20%	8 to 16 µg/mL	
CCCC[C@@H](NC(=O)[C@H](CCCCN)NC(=O)[C@H](CCCCN)NC(=O)[C@@H](N)CCCCN)C(=O)N[C@H](Cc1cccc2ccccc12)C(=O)N[C@H](Cc1ccccc1)C(=O)N[C@H](Cc1cccc2ccccc12)C(N)=O [Compound 26, Lys-Lys-Lys-nle-(1-Nal)ala-phe-(1-Nal)ala] (H-KKK[dNle][d1Nal][dF][d1Nal]-NH2; N-terminus assumed)											precipitated after 15 min
